Test results taken from ChEMBL document CHEMBL1201862, “PubChem BioAssay data set” (2004).
Calls of active or inactive are those of the source.

Legend:
Bcl-2-related protein A1 [1] = biological target: T1, Bcl-2-related protein A1 (Mus musculus, UniProt Q07440); experiment: small-molecule antagonists of Bfl-1/BH3 interaction – biochemical, TR-FRET, mouse Bfl-1, confirmation (AID 621);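 also: TR-FRET binding of GST-Bfl-1 to FITC-labelled Bid peptide via terbium antibody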
T1 sequence (Q07440 whole entry): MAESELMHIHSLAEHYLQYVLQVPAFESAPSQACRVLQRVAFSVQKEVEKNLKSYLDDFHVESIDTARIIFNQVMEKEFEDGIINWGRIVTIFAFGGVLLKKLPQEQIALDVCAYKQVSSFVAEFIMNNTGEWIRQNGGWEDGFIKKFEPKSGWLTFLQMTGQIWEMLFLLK

Bcl-2-related protein A1 [2] = biological target: T1, Bcl-2-related protein A1; experiment: Bfl-1 binding inhibitors, SAR follow-up, biochemical, fluorescence polarization (AID 1070)
[3] = OVCAR8 cell viability loss – plate reader, dry powder samples, PAX8 project, dose response (AID 743197); assay type: functional, cell-based; details: OVCAR-8
[4] = lung carcinoma cell viability loss – CellTiter-Glo luminescence, dry powder, set 17, dose response (AID 1117284); assay type: functional, cell-based; details: A549
Paired box protein Pax-8 = Paired box protein Pax-8 (Homo sapiens, UniProt Q06710); experiment: PAX8 transcriptional activity inhibition in RMG-I – RMG-I cells, luciferase, cherry-pick, dose response (AID 687027); assay type: functional, cell-based;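 also: luciferase reporter driven by Pax8 target thyroperoxidase promoter measured by SteadyGlo luminescence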
INS1 = experiment: INS-1E survival protection against cytokine death – cell-based, luminescence, retest, dose response (AID 449756); assay type: functional; details: Rattus norvegicus;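 also: cell death triggered by IL-1 beta plus TNF-alpha plus IFN-gamma mixture; protective hits raise ATP signal compared with cytokine alone wells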
Streptococcus = experiment: GAS UMAA2166 growth inhibition – luminescence, BacTiterGlo, counter-screen for streptokinase expression inhibitor project, dose response (AID 1915); assay type: functional, organism-based;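 also: potency for reduction of bacterial viability or growth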
cells [5] = assay type: functional, cell-based
[6] = biological target: Voltage-gated inwardly rectifying potassium channel KCNH2 (Homo sapiens, UniProt Q12809); experiment: concentration-dependent hERG rescue from blockers – cell-based, thallium flux, dose response (AID 2121); assay type: ADME
[7] = Trypanosoma cruzi growth suppression in host cells – NIH3T3 host cells, beta-gal luminescence, confirmation (AID 2044); assay type: functional, cell-based;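 also: intracellular parasites grown in NIH/3T3 mouse fibroblasts as host cells; luminescent beta-galactosidase reporter signal from transgenic T. cruzi replicating inside host cells; inhibitors lower the luminescence signal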
[8] = tested on: Streptococcus sp. 'group A'; experiment: Streptococcus pyogenes SK(-)GAS viability under kanamycin – luminescence, BacTiterGlo, confirmation, counter-screen for streptokinase expression inhibitor project, dose response (AID 1900); assay type: functional, organism-based
cells [9] = assay type: functional, cell-based; remark: listed apart in the source
[10] = NIH3T3 cell viability loss – ATP luminescence, mouse fibroblasts, counter-screen, dose response (AID 2010); assay type: functional, cell-based;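 also: cells exposed to compound for about 90 hours before reading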
[11] = M. tuberculosis growth inhibition, HTS (AID 449762); assay type: functional
[12] = biological target: FAD-linked sulfhydryl oxidase ALR (Homo sapiens, UniProt P55789); experiment: ALR-catalysed DTT oxidation blockers – biochemical, H2O2 detection, luminescence, cherry-pick, dose response (AID 493248)
Bcl-2-related protein A1 [13] = biological target: T1, Bcl-2-related protein A1; experiment: displacement of Bid BH3 peptide from Bfl-1 – biochemical, fluorescence polarization, FITC-Bid, mouse, primary screen (AID 432)
Ephrin type-A receptor 4 = Ephrin type-A receptor 4 (Mus musculus, UniProt Q03137); experiment: EphA4 ligand-binding antagonists – biochemical, colorimetric, mouse EphA4, primary screen (AID 689); assay type: functional
Large T antigen = Large T antigen (Simian virus 40, UniProt P03070); assay type: functional, Betapolyomavirus macacae;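 also: Confirmatory-stage PubChem screen for compounds that inhibit SV40 T antigen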
[14] = biological target: Glucose-6-phosphate 1-dehydrogenase (Homo sapiens, UniProt P11413); experiment: inhibition of Homo sapiens G6PD, dose series – biochemical, fluorescence, selectivity assay for P. falciparum G6PD inhibitor project, dose response (AID 504792); assay type: functional
[15] = Luminescence-based cell-based high throughput dose response assay to identify activators of the DAF-12 from the parasite S. stercoralis (ssDAF-12).; assay type: functional
Protein skinhead-1 = biological target: T2, Protein skinhead-1 (Caenorhabditis elegans, UniProt P34707); assay type: functional
T2 sequence (P34707 whole entry): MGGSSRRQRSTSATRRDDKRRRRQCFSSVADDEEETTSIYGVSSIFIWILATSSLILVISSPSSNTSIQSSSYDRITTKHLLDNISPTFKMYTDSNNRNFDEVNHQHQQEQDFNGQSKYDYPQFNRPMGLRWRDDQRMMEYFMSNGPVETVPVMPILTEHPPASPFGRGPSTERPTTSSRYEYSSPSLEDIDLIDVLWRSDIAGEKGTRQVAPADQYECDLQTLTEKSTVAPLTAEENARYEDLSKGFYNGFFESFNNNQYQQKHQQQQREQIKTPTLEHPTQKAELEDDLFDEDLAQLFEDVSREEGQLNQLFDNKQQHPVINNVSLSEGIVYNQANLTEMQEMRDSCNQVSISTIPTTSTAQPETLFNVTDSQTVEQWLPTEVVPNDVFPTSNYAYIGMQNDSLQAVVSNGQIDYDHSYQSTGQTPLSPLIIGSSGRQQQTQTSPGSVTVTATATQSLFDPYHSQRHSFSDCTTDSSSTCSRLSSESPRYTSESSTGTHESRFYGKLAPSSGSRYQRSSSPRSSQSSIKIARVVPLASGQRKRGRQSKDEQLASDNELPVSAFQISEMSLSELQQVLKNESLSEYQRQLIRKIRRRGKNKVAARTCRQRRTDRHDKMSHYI

[16] = biological target: T3, Oxysterols receptor LXR-beta (Homo sapiens, UniProt P55055); experiment: LXR agonists, Gal4 luciferase reporter, dose response, counter-screen for ssDAF-12 agonist project, cell-based, luminescence, HEK293, S. stercoralis campaign (AID 720737); assay type: functional; details: read-out: IC50 (the source's name)
T3 sequence (P55055 whole entry): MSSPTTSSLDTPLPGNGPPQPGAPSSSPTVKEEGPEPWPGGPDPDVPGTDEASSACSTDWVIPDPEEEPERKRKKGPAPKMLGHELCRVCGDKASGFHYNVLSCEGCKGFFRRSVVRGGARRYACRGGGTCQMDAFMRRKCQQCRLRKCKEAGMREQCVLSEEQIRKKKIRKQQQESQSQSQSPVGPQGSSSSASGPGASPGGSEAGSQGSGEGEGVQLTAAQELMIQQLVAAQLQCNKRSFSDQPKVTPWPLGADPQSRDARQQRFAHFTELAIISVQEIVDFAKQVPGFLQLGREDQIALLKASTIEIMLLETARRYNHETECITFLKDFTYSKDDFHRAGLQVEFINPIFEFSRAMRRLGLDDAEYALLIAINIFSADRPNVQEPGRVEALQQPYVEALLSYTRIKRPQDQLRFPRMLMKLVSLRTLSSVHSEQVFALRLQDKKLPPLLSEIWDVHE

[17] = growth inhibition of PfATP4-mutant resistant parasites – NITD609-resistant line, SYBR Green, dry powder, dose response (AID 1159571); assay type: functional, cell-based;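 also: parasites synchronized at ring stage by sorbitol before testing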
[18] = Dd2 malaria parasite growth inhibition potency – SYBR Green, dry powder samples, dose response (AID 1159566); assay type: functional, cell-based;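 also: potency for growth inhibition with lower SYBR green DNA signal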
[19] = P. falciparum Dd2 growth inhibitors, dose response, SYBR Green, cherry-picked samples (AID 1159567); assay type: functional, cell-based
[20] = reduced cellular PGC1a acetyl-lysine signal – cell-based, cherry-picked samples, dose response (AID 720514); assay type: functional;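 also: potency may reflect raised or lowered acetylation signal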
[21] = toxicity to human HepG2 hepatoma cells – cell-based, plate reader, dry powder samples, cytotoxicity control, dose response (AID 1159569); assay type: functional;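 also: inhibitor potency with signal falling toward the positive control level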
[22] = growth inhibition of yeast DHODH-expressing 3D7 parasites – SYBR Green, dry powder samples, dose response (AID 1159570); assay type: functional, cell-based;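 also: parasite growth measured after 72 hours of compound exposure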

Chain of Ephrin type-A receptor 4 (Q03137 whole entry): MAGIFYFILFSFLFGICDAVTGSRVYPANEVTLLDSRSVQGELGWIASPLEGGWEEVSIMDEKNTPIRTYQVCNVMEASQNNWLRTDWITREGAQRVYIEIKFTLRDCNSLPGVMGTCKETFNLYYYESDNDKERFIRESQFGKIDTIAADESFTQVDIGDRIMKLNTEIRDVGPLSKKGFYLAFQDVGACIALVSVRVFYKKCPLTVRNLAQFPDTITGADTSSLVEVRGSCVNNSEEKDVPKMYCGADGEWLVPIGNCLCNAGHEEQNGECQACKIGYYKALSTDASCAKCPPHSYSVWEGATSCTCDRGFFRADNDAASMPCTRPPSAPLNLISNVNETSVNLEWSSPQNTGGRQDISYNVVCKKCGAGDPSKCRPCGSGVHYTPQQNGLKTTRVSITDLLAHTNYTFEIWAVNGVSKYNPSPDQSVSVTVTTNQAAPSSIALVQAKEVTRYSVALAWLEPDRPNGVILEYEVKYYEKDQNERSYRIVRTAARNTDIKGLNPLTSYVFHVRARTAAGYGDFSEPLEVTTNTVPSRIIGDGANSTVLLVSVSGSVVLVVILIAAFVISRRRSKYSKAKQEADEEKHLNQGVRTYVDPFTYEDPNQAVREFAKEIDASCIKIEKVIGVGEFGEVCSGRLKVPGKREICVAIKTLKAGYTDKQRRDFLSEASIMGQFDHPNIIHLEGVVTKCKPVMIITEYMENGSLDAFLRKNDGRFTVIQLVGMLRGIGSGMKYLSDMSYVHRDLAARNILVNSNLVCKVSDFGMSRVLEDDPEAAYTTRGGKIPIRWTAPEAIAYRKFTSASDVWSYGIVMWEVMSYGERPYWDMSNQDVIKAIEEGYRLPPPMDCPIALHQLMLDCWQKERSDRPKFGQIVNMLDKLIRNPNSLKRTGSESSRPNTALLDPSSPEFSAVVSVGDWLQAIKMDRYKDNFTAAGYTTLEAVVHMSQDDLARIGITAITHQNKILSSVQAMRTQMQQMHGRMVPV
Chain of FAD-linked sulfhydryl oxidase ALR (P55789 whole entry): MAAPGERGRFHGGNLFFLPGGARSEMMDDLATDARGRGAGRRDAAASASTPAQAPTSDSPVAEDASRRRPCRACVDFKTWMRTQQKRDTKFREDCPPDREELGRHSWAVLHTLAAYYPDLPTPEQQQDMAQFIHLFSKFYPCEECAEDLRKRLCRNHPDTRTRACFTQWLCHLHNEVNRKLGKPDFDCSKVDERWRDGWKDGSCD
Chain of Paired box protein Pax-8 (Q06710 whole entry): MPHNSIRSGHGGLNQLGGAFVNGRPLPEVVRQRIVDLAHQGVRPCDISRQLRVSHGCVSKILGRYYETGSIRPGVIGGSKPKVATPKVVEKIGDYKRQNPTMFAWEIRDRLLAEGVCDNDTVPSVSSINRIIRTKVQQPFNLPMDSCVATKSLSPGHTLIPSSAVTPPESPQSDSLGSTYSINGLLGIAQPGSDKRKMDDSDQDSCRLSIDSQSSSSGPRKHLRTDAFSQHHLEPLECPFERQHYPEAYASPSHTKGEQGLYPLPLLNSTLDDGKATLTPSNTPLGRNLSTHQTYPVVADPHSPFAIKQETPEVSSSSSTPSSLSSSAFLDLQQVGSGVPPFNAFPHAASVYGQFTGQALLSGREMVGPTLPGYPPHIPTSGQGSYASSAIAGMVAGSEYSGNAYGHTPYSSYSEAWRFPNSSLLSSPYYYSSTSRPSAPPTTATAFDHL
Chain of Large T antigen (P03070 whole entry): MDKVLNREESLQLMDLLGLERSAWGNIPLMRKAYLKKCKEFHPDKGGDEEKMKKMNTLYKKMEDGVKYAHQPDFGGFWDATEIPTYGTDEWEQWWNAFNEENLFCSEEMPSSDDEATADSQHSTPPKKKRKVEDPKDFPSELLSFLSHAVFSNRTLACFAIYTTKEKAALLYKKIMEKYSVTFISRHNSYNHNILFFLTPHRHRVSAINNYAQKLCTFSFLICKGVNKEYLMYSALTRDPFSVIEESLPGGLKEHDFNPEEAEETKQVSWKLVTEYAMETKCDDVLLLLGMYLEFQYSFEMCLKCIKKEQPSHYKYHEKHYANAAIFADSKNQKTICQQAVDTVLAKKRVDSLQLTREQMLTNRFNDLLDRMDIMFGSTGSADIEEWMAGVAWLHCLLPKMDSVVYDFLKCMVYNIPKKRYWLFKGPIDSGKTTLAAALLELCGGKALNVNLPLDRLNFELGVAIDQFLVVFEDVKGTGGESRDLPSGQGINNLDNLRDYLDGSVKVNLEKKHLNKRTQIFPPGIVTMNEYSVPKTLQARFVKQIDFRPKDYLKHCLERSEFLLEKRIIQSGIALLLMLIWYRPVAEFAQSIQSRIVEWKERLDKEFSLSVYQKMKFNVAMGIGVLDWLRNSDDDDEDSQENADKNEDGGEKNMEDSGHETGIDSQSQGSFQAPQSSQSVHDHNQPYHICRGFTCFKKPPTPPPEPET
Chain of Voltage-gated inwardly rectifying potassium channel KCNH2 (Q12809 whole entry): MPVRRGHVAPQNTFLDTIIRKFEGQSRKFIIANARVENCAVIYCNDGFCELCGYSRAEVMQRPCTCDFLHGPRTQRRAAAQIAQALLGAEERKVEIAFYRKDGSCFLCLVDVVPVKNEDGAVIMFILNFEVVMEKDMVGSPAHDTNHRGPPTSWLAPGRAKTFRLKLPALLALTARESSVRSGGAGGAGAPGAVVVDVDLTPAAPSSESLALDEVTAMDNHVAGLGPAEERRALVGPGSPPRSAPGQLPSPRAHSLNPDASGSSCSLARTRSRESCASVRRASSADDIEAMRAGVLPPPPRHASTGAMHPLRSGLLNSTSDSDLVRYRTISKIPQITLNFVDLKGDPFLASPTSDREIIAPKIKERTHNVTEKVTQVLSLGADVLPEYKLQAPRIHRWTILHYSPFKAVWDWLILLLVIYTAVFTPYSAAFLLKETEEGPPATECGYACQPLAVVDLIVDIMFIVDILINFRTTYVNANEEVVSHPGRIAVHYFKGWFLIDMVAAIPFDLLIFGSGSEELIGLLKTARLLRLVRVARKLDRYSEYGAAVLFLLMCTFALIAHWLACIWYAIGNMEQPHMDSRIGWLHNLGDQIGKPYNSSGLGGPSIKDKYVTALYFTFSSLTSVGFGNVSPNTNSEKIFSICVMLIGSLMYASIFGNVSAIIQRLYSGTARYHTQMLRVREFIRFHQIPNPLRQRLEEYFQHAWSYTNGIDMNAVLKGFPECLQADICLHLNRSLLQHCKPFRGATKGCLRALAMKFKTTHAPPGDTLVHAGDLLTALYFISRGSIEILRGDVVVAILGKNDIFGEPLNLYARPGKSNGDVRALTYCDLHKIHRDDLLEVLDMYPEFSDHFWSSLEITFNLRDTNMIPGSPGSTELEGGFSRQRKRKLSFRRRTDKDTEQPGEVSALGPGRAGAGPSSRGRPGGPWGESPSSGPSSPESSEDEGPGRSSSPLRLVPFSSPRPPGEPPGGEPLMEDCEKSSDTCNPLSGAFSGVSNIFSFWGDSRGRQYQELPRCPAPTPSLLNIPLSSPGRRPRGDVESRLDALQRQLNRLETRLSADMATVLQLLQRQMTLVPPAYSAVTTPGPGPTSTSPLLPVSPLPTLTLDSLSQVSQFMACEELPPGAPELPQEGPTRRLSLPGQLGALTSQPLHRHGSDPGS
Chain of Glucose-6-phosphate 1-dehydrogenase (P11413 whole entry): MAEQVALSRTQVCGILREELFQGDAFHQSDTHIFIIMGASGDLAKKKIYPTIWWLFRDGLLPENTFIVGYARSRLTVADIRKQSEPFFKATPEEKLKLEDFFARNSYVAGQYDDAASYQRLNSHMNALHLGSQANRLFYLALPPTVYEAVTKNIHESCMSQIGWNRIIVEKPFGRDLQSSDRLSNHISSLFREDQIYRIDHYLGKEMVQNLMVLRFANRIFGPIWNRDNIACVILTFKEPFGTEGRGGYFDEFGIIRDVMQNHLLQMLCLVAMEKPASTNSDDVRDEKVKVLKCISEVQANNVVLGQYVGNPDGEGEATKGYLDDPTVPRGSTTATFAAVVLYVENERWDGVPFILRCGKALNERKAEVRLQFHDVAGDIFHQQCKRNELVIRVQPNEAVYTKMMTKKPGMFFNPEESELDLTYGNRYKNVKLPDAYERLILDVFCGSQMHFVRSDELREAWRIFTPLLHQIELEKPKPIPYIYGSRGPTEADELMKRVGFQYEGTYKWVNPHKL

Q: Which IC50 (Bcl-2-related protein A1 [1]) does the source give for `O=C1C(Cl)=C(N2CCN(C/C=C/c3ccccc3)CC2)C(=O)N1c1ccc(Cl)c(Cl)c1` here?
A: 0.73 µM (active)

Q: What about the IC50 (Bcl-2-related protein A1 [2]) of the same compound?
A: 594 nM (active)

Q: Which results are given for `C[C@H](O)C#Cc1ccc2c(c1)O[C@H](CN(C)Cc1ccc(-c3ccccc3)cc1)[C@H](C)CN([C@@H](C)CO)S2(=O)=O`?
A: AC50 [3]: 50 µM (active); AC50 [4]: > 52 µM (inactive); AC50 (Paired box protein Pax-8): 5.87 µM (active)

Q: For `Cc1ccc(N=Nc2ccc(O)c3ncccc23)cc1`, which AC50 (INS1) is on record?
A: 1.3 µM (active)

Q: And the EC50 (Streptococcus)?
A: 1.56 µM (active)

Q: What about the EC50 (cells [5]) of the same compound?
A: 9.69 µM (active)

Q: What about the EC50 [6] of the same compound?
A: 2.02 µM (active)

Q: And the EC50 [7]?
A: 686 nM (active)

Q: What about the EC50 [8] of the same compound?
A: 165 nM (active)

Q: And the EC50 (cells [9])?
A: > 350 µM (not active)

Q: What about the EC50 [10] of the same compound?
A: 32.7 µM (active)

Q: Which IC50 [11] does the source give for `O=C1CCC(=O)N1CNc1ccc(Oc2ccccc2)cc1` here?
A: > 100 µM (active)

Q: What about the AC50 [12] of the same compound?
A: 166 nM (active)

Q: With `COc1ccc(N2C(=O)C(Cl)=C(Nc3c(C)n(C)n(-c4ccccc4)c3=O)C2=O)cc1` as the compound, how does the IC50 (Bcl-2-related protein A1 [13]) read?
A: > 100 µM (not active)

Q: What about the IC50 (Bcl-2-related protein A1 [1]) of the same compound?
A: > 100 µM (not active)

Q: What does the source list for `COc1ccccc1N1CSC2=C(C#N)C(c3ccc(SC)cc3)CC(=O)N2C1` (centres undefined)?
A: IC50 (Ephrin type-A receptor 4): 21.5 µM (active); IC50 (Large T antigen): 28.4 µM (active); IC50 [14]: > 80 µM (inactive)

Q: With `Fc1ccc(-c2csc(Nc3ccccn3)n2)cc1` as the compound, how does the IC50 [15] read?
A: > 67.6 µM (inactive)

Q: What about the IC50 (Protein skinhead-1) of the same compound?
A: 22.8 µM (active)

Q: What about the EC50 [16] of the same compound?
A: > 67.6 µM (inactive)

Q: With `O=S(=O)(c1ccc(-c2ccccc2)cc1)N1C[C@@H]2N[C@H](C1)[C@@H]2c1ccc(-c2cccnc2)cc1` as the compound, how does the AC50 [17] read?
A: 1.8 µM (active)

Q: What about the AC50 [18] of the same compound?
A: 772 nM (active)

Q: And the AC50 [19]?
A: 2.14 µM (active)

Q: And the AC50 [20]?
A: 8.2 µM (active)

Q: And the AC50 [21]?
A: 19.5 µM (active)

Q: What about the AC50 [22] of the same compound?
A: 1.29 µM (active)
